Assay results reported in paper PMC8877149, “A Fungal Defensin Inhibiting Bacterial Cell-Wall Biosynthesis with Non-Hemolysis and Serum Stability” (Journal of Fungi, 2022).
Where a SMILES comes first, the peptide text is derived from it. Bridges are numbered along the chain shown (N, C = ends).

Assays:
[1] = test system: Bacillus megaterium CGMCC 1.0459; assay: Inhibition-zone assay, lethal concentration (CL); type: cell-based
Method: (§1) The inhibition-zone assay was used to quantify the antibacterial activity of Py4, as described previously. In brief, an overnight bacterial culture from a single colony was inoculated into fresh medium and grew to the late log-phase. A 10 μL aliquot of each culture was diluted in 6 mL pre-heated medium containing 0.8% agar. The mixture was spread on a 9-cm Petri dish, giving a depth of 1 mm. After settling, 3-mm wells were punched in the plate and then 2 μL peptide samples of different concentrations were added to each well. The agar plates were incubated overnight at indicated temperatures. A lethal concentration (CL) was calculated from a plot of d^2 against log n, where d is the diameter (in cm) and n is the amount of sample applied in the well (in nmol). The plot is linear and thus CL can be calculated from the slope (k) and the intercept (m) of this plot. The formula used here was CL = 2.93/ak10^m/k, where a is the thickness of the bacterial plate and CL is in μM.

Curtobacterium luteum = assay: Inhibition-zone assay, lethal concentration (CL); type: cell-based
Method: as §1

[2] = test system: Methicillin-resistant Staphylococcus aureus P1374; assay: Inhibition-zone assay, lethal concentration (CL); type: cell-based; conditions: methicillin-resistant S. aureus P1374
Method: as §1

[3] = test system: Methicillin-resistant Staphylococcus aureus P1386; assay: Inhibition-zone assay, lethal concentration (CL); type: cell-based; conditions: methicillin-resistant S. aureus P1386
Method: as §1

[4] = test system: Methicillin-resistant coagulase negative Staphylococci P1369; assay: Inhibition-zone assay, lethal concentration (CL); type: cell-based
Method: as §1

[5] = test system: Penicillin-resistant Staphylococcus epidermidis P1389; assay: Inhibition-zone assay, lethal concentration (CL); type: cell-based; conditions: penicillin-resistant S. epidermidis P1389
Method: as §1

[6] = test system: Penicillin-sensitive Staphylococcus epidermidis P1111; assay: Inhibition-zone assay, lethal concentration (CL); type: cell-based; conditions: penicillin-sensitive S. epidermidis P1111
Method: as §1

[7] = test system: Staphylococcus aureus CGMCC 1.89; assay: Inhibition-zone assay, lethal concentration (CL); type: cell-based
Method: as §1

[8] = test system: Staphylococcus aureus J685; assay: Inhibition-zone assay, lethal concentration (CL); type: cell-based; conditions: S. aureus J685
Method: as §1

[9] = test system: Staphylococcus aureus J698; assay: Inhibition-zone assay, lethal concentration (CL); type: cell-based; conditions: S. aureus J698
Method: as §1

[10] = test system: Staphylococcus aureus J706; assay: Inhibition-zone assay, lethal concentration (CL); type: cell-based; conditions: S. aureus J706
Method: as §1

[11] = test system: Staphylococcus warneri CGMCC 1.2824; assay: Inhibition-zone assay, lethal concentration (CL); type: cell-based
Method: as §1

[12] = test system: fresh erythrocytes from ICR mice; assay: Hemolysis assay; type: cell-based, Mus musculus; conditions: 3.125 to 25 µM, 2-fold serial dilutions, in 0.9% NaCl; A570; 100% = 1% Triton X-100
Method: (§2) Hemolytic activity of peptides against fresh erythrocytes from ICR mice (Mus musculus) was assayed according to the standard method. Peptides were diluted with 0.9% NaCl to the indicated concentration. The percentage of hemolysis is determined as (Apep − Ablank)/(Atot − Ablank) × 100, in which “A” represents absorbance measured at 570 nm. Ablank and Apep were evaluated in the absence or presence of peptides. One hundred percent hemolysis (Atot) was obtained in the presence of 1% Triton X-100. For the stability assay, Py4 was incubated in H2O or fresh mouse serum for the indicated times at 37 °C and their residual activity was measured by the inhibition-zone assay.

[13] = Serum stability assay (residual activity by inhibition-zone assay); type: in vitro ADME; conditions: undiluted fresh mouse serum, 37 °C, read-out inhibition zone on B. megaterium, 0.2 nmol/well, ns vs 0 h
Method: as §2

[14] = test system: Bacillus megaterium cells; assay: Membrane permeability assay (propidium iodide fluorescence); type: cell-based; conditions: B. megaterium in PBS pH 7.3, 1 µM propidium iodide, peptide or vancomycin at 10 × CL, exc 525 nm / em 595 nm
Method: The membrane permeability assay was performed according to the method previously described. Meucin-18 and Meucin-49, two known scorpion venom lytic peptides, were used as positive controls and vancomycin, a known bacterial cell-wall synthesis inhibitor without membrane-disruptive ability as a negative control. Bacillus megaterium cells in 500 μL of phosphate buffered saline (PBS) (pH 7.3) were mixed with 1 μM propidium iodide (PI) for 5 min in the dark. Fluorescence was measured with the F-4500 FL spectrophotometer (Hitachi High-Tech Science Corporation, Tokyo, Japan). Once the basal fluorescence reached a constant value, peptides or vancomycin at 10 × CL were added, and changes in fluorescence arbitrary were monitored (λexc = 525 nm; λems = 595 nm).

S. warneri cells = assay: Cytoplasmic accumulation of UDP-MurNAc-pentapeptide (UMP); type: cell-based, Staphylococcus warneri; conditions: 130 µg/mL chloramphenicol pre-treatment 15 min, Py4 0.6 µM or vancomycin 2.0 µM, 30 min
Method: The cytoplasmic UDP-MurNAc-pentapeptide (abbreviated as UMP) accumulation experiment was carried out according to the method previously described. In brief, S. warneri cells were grown at 37 °C to an OD600 of 0.5 in 40 mL broth medium and then the culture was supplemented with 130 μg/mL chloramphenicol to impede bacterial cell proliferation by blocking their protein synthesis. After 15 min of incubation, the culture was divided into three equal portions, and one portion was treated with Py4 (0.6 μM), the second with vancomycin (2.0 μM), and the third was used as an untreated control. UMP was extracted from the harvested cells following 30 min of incubation. UMP was identified by MALDI−TOF on MALDI−TOF/TOF Ultraflextreme^TM (Bruker Daltonics, Bremen, Germany) using 2,5-dihydroxybenzoic acid (DHB) as the matrix in the negative-reflection ion mode.

S. aureus = test system: S. aureus; set-up: key: “+”, activity; “-“, no activity”; conditions: Figure 6, antibacterial activity; cited from earlier work
From the text: Compared with plectasin, the natural variant Py4 has two point mutations at positions 14 and 33 (Figure 1A) that are respectively located on the α-helix (Q14K) and the C-loop (G33A) (Figure 1A). These two mutations are interesting considering their mutational effects previously reported in plectasin. (1) Position 14. […] Small dots represent identical residues to plectasin. Positions showing differences in the peptides are boxed and the mutated residues relative to plectasin are colored in red. Positions involved in intramolecular epistasis are linked by one line. The arrow points to the position accounting for differential genetic backgrounds between plectasin and Py4. […] “+”, activity; “-“, no activity”. TEXT PRINTED IN THE PICTURE: Ple ...

## CC[C@H](C)[C@@H]1NC(=O)[C@H](CO)NC(=O)[C@H](CCCCN)NC(=O)[C@@H]2CSSC[C@@H](C(=O)N[C@@H](Cc3ccc(O)cc3)C(=O)O)NC(=O)[C@H](CCCCN)NC(=O)[C@@H]3CSSC[C@H](NC(=O)[C@H](CCCCN)NC(=O)[C@H](CCSC)NC(=O)[C@H](CC(=O)O)NC(=O)[C@H](CC(=O)O)NC(=O)[C@H](CCC(=O)O)NC(=O)[C@H](CC(=O)O)NC(=O)[C@H](Cc4c[nH]c5ccccc45)NC(=O)[C@@H]4CCCN4C(=O)CNC(=O)[C@H](CC(N)=O)NC(=O)[C@@H](NC(=O)CNC(=O)[C@H](Cc4ccccc4)NC(=O)CN)CSSC[C@H](NC(=O)[C@H](Cc4ccc(O)cc4)NC(=O)CNC(=O)CNC(=O)[C@H](CCCCN)NC(=O)[C@H](Cc4ccc(O)cc4)NC(=O)CNC(=O)[C@H](CCCCN)NC1=O)C(=O)N[C@@H](C)C(=O)N[C@@H](CCCCN)C(=O)N[C@@H](C)C(=O)NCC(=O)N[C@@H](Cc1ccccc1)C(=O)N[C@@H](C(C)C)C(=O)N3)C(=O)N[C@@H](Cc1c[nH]cn1)C(=O)N[C@@H](CC(N)=O)C(=O)N[C@@H](Cc1c[nH]cn1)C(=O)N2 [Py4, Pyronesin4] (H-GFGCNGPWDEDDMKCHNHCKSIKGYKGGYCAKAGFVCKCY-OH; disulfide 4-30, 15-37, 19-39)
[1]
  CL (lethal concentration): 0.67 µM
Curtobacterium luteum
  CL (lethal concentration): 0.03 µM
[2]
  CL (lethal concentration): 2.69 µM
[3]
  CL (lethal concentration): 2.51 µM
[4]
  CL (lethal concentration): 4.78 µM
[5]
  CL (lethal concentration): 4.38 µM
[6]
  CL (lethal concentration): 4.03 µM
[7]
  CL (lethal concentration): 1.22 µM
[8]
  CL (lethal concentration): 2.69 µM
[9]
  CL (lethal concentration): 2.69 µM
[10]
  CL (lethal concentration): 2.51 µM
[11]
  CL (lethal concentration): 1.06 µM
[12]
  hemolysis on mouse blood cells: no significant hemolysis
[13]; 24 h
  residual antibacterial activity after incubation in serum: retained its full antibacterial activity
[13]; 48 h
  residual antibacterial activity after incubation in serum: retained its full antibacterial activity

## CN[C@H](CC(C)C)C(=O)N[C@H]1C(=O)N[C@@H](CC(N)=O)C(=O)N[C@H]2C(=O)N[C@H]3C(=O)N[C@H](C(=O)N[C@H](C(=O)O)c4cc(O)cc(O)c4-c4cc3ccc4O)[C@H](O)c3ccc(c(Cl)c3)Oc3cc2cc(c3O[C@@H]2O[C@H](CO)[C@@H](O)[C@H](O)[C@H]2O[C@H]2C[C@](C)(N)[C@H](O)[C@H](C)O2)Oc2ccc(cc2Cl)[C@H]1O [vancomycin]
[14]
  membrane-disruptive activity (PI fluorescence increase): no obvious fluorescent increase
S. warneri cells
  cytoplasmic accumulation of UMP (RP-HPLC peak, MALDI-TOF identified): common emerging peak

## Plectasin (GFGCNGPWDEDDMQCHNHCKSIKGYKGGYCAKGGFVCKCY; UniProt Q53I06 56-95, looked up) [first fungal defensin found in Pseudoplectania nigrella, prototype of fungal defensin-like peptides]
S. aureus
  Activity: +
